Where two headings read alike, the source gives them in different places.
Assays:
poliovirus (PV1) = type: cell-based, Poliovirus-1
coliphage MS2 = type: cell-based, coliphage MS2 (ATCC 15597-B1); conditions: for log10 reduction of MS2 / reduction of MS2: in NaCl, UV light
HAV = type: cell-based, hepatitis A virus, strain HM175; conditions: for reduction of HAV: in plasma
Klebsiella oxytoca = assay: Inactivation of Klebsiella oxytoca in human plasma; type: cell-based; conditions: 10^−5 M with light (FIG. 7)
E. coli B [1] = type: cell-based, Escherichia coli B (ATCC 11303); conditions: for log10 reduction of E. coli B / percentage reduction of E. coli B: 10^−3 M in NaCl, 365 nm UV; for log10 reduction of Escherichia coli B / percentage reduction of Escherichia coli B: 365 nm light
Escherichia coli B = assay: Initial studies: inactivation of Escherichia coli B with and without aeration of the medium; type: cell-based
Description: Light alone, or porphyrin alone, were ineffective.

[2] = test system: Chinese Hamster Ovary (CHO) cells
E. coli B [3] = assay: Inactivation of E. coli B on porphyrin-containing cellulose acetate membranes; type: cell-based, Escherichia coli B (ATCC 11303); conditions: cellulose acetate membranes containing the porphyrin, UV light, 100 minutes
Procedure: Cultures of E. coli B (ATCC 11303) were grown the day before an experiment to log phase growth in 50 milliliters of tryptic soy broth (TSB) followed by centrifugation at 3000 rpm for 10 minutes and at 4° C. The supernatant was drawn off and discarded and pellets were resuspended in 10 mL of 0.2 M phosphate buffered saline (PBS; pH 7.2). The centrifugation-resuspension process was repeated for a total of three times. Preparations were kept at 4° C. until ready for use. Bacterial cultures were assayed on tryptic soy agar (TSA) by spot or spread plating duplicate 0.04 to 0.1 ml volumes of the serially diluted preparation onto the agar plates, and was enumerated via colony counts after incubation overnight at 44.5° C. Results are expressed as cfu/ml. On the day of an experiment, the stock preparation was serially diluted in PBS to a target concentration of about […] E. coli cells per milliliter for use on membranes and in solution, respectively. Duplicate 0.1 ml volumes of the experimental samples were spread plated on TSA and incubated overnight at 44.5° C.
When cellulose acetate membranes containing protoporphyrin IX (disodium salt) were exposed to UV light, E. coli B was inactivated by 0.3 log10 cfu/ml in 100 minutes and by about 1.0 log10 (90%) in 300 minutes (FIG. 8).

[4] = 10^−4 M, another experiment (controls 193)
[5] = 10^−4 M, six days, first experiment (controls 271)
[6] = 10^−5 M, another experiment (controls 193)
[7] = 10^−5 M, six days, first experiment (controls 271)

SMILES: C[n+]1ccc(-c2c3nc(c(-c4cc[n+](C)cc4)c4ccc([nH]4)c(-c4cc[n+](C)cc4)c4nc(c(-c5cc[n+](C)cc5)c5ccc2[nH]5)C=C4)C=C3)cc1.Cc1ccc(S(=O)(=O)[O-])cc1.Cc1ccc(S(=O)(=O)[O-])cc1.Cc1ccc(S(=O)(=O)[O-])cc1.Cc1ccc(S(=O)(=O)[O-])cc1 [TMPyP4, tetrakis (N-methyl-4-pyridiniumyl) porphine tetratosylate]
- poliovirus (PV1) in the absence of light (poliovirus (PV1)): unaffected
- MS2 incubated in the dark, infectivity assay (coliphage MS2; 10^−3 M in PBS, dark): not detected
- log10 reduction of MS2 (coliphage MS2; 1 minute): 0.3 log10
- reduction of MS2 (coliphage MS2; 1 minute): 50%
- log10 reduction of MS2 (coliphage MS2; 10 minutes): 0.9 log10
- reduction of MS2 (coliphage MS2; 10 minutes): 87%
- log10 reduction of MS2 (coliphage MS2; 60 minutes): > 3.8 log10
- reduction of MS2 (coliphage MS2; 60 minutes): > 99.98%
- MS2 in the absence of light (coliphage MS2; no light (FIG. 3)): unaffected
- MS2 in porphyrin/plasma mixture not exposed to LWUV (coliphage MS2; plasma, no LWUV): not detectable
- inactivation of HAV in water (HAV; 10^−5M in water, light, 30 min (FIG. 5)): greater than 3 logs
- inactivation of Klebsiella oxytoca (Klebsiella oxytoca): over 5 log10
- log10 reduction of E. coli B (E. coli B [1]; 1 minute): 1.7 log10
- percentage reduction of E. coli B (E. coli B [1]; 1 minute): 98%
- log10 reduction of E. coli B (E. coli B [1]; 10 minutes): 2.4 log10
- percentage reduction of E. coli B (E. coli B [1]; 10 minutes): 99.6%
- log10 reduction of E. coli B (E. coli B [1]; 30 minutes): 3.7 log10
- percentage reduction of E. coli B (E. coli B [1]; 30 minutes): 99.98%
- log10 reduction of E. coli B (E. coli B [1]; 90 minutes): > 5.9 log10
- E. coli B incubated in the dark, infectivity assay (E. coli B [1]; 10^−3 M in PBS, dark): not detected
- infectivity of E. coli B after treatment (E. coli B [1]; 10^−5 M in PBS, with or without light, one minute (FIG. 9)): decreased below detection limits
- inactivation of Escherichia coli B (Escherichia coli B; 30 minutes, medium aerated by sparging with air): over 3.7 log
- inactivation of Escherichia coli B, medium not aerated (Escherichia coli B; medium not aerated): No inactivation
- effect of porphyrin alone on Escherichia coli B (Escherichia coli B; porphyrin alone, without light): ineffective
- CHO colony count [2, 4]: no colony forming units detected
- CHO colony count [2, 5]: no cells could be detected
- CHO colony count [2, 6]: 183 cfu/well
- CHO colony count [2, 7]: 322 cfu/well

SMILES: CCCC[n+]1ccc(-c2c3nc(c(-c4cc[n+](CCCC)cc4)c4ccc([nH]4)c(-c4cc[n+](CCCC)cc4)c4nc(c(-c5cc[n+](CCCC)cc5)c5ccc2[nH]5)C=C4)C=C3)cc1 [TPyPH2(N-Bu), tetrakis (4-n-butylpyridiniumyl) porphyrin]
- reduction of HAV (HAV; 1 minute (first of five values)): 0.1 log10
- reduction of HAV (HAV; 10 minutes (second of five values)): 1.5 log10
- reduction of HAV (HAV; 30 minutes (third of five values)): 1.6 log10
- reduction of HAV (HAV; 90 minutes (last of five values)): > 3.3 log10
- reduction of HAV (HAV; fourth of five values, its time is not given): 2.7 log10
- CHO colony count [2, 4]: no colony forming units detected
- CHO colony count [2, 6]: 186 cfu/well

SMILES: C=CC1=C(C)c2cc3[nH]c(cc4nc(cc5[nH]c(cc1n2)c(C)c5CCC(=O)O)C(CCC(=O)O)=C4C)c(C)c3C=C [protoporphyrin IX]
- inactivation of E. coli B (E. coli B [3]): 0.3 log10 cfu/ml

SMILES: Cl.Cl.O=S(=O)(O)c1ccc(-c2c3nc(c(-c4ccc(S(=O)(=O)O)cc4)c4ccc([nH]4)c(-c4ccc(S(=O)(=O)O)cc4)c4nc(c(-c5ccc(S(=O)(=O)O)cc5)c5ccc2[nH]5)C=C4)C=C3)cc1 [TPPS4, meso-tetra-(4-sulfonatophenyl)-porphine dihydrochloride]
- MS2 in the absence of light (coliphage MS2): unaffected
- coliphage MS2 after 10 minutes of contact (coliphage MS2): unaffected
- inactivation of coliphage MS2 in plasma (coliphage MS2): about 3 logs
- initial infectious test microbes remaining at the end of each experimental period (coliphage MS2): approximately 100%
- loss of infectivity without UV light (coliphage MS2): no loss of infectivity
- inactivation of HAV in plasma (HAV): about 1 log
- inactivation of HAV in water (HAV): 2 logs
- reduction of HAV in plasma (HAV): 2 logs
- log10 reduction of Escherichia coli B (E. coli B [1]; 10^−5 M in PBS, 1 minute): 0.6 log10
- percentage reduction of Escherichia coli B (E. coli B [1]; 10^−5 M in PBS, 1 minute): 75%
- log10 reduction of Escherichia coli B (E. coli B [1]; 10^−5 M in PBS, 10 minutes): 1.6 log10
- percentage reduction of Escherichia coli B (E. coli B [1]; 10^−5 M in PBS, 10 minutes): 97%
- log10 reduction of Escherichia coli B (E. coli B [1]; 10^−5 M in PBS, 30 minutes): > 5.5 log10
- loss of infectivity of E. coli B in the absence of long-wavelength UV light (E. coli B [1]; porphyrin without long-wavelength UV light): did not result in any loss of infectivity
- CHO colony count [2, 4]: 189 cfu/well
- CHO colony count [2, 5]: 320 cfu/well
- CHO colony count [2, 7]: 310 cfu/well

— patent US20020022215A1 (priority 2000, published 2002)
